Where a name gives a salt, the structure may show the parent alone.
Experiments:
[1] = system: Isolated Rat Bladder Strips; experiment: Inhibition of contractions in isolated rat bladder strips (KCl-enhanced contractile activity); design: species or system Sprague-Dawley rats; conditions: 0.5 h, 15 mM KCl added, contractile activity measured in last minute of 30 minute challenge
Description: Sprague-Dawley rats (150-200 g) are rendered unconscious by CO2 asphyxiation and then euthanized by cervical dislocation. The bladder is removed into warm (37° C.) physiological salt solution (PSS) of the following composition (mM): NaCl, 118.4; KCI, 4.7; CaCl2, 2.5; MgSO4, […]; NaHCO3, 24.9; KH2PO4, 1.2; glucose, 11.1; EDTA, 0.023; gassed with […]; pH 7.4. The bladder is opened and then cut into strips 1-2 mm in width and 7-10 nmm in length. The strips are subsequently suspended in a 10 mL tissue bath under an initial resting tension of 1.5 g. The strips are held in place by two surgical clips one of which is attached to a fixed hook while the other is attached to an isometric force transducer. […] The carbachol is then washed out and the tissue allowed to relax to its resting level of activity. Following a further 30 min period of recovery an additional 15 mM KCl are introduced into the tissue bath. This increase in KCl concentration results in a large increase in the amplitude of spontaneous contractions (and initiation of contractions in previously quiescent strips) superimposed upon a small increase in basal tone. Following stabilization of this enhanced level of contractile activity, incremental increases in the concentration of test compound or vehicle are introduced into the tissue bath. Contractile activity is measured for each compound or vehicle concentration during the last minute of a 30 minute challenge.
The isometric force developed by the bladder strips is measured using a […] to elicit 50% inhibition of pre-drug contractile activity (IC50 concentration) and is calculated from this concentration-response curve.

[2] = system: hypertrophied bladder (detrusor) smooth muscle; experiment: Inhibition of spontaneous contractions in vivo, hypertrophied rat bladder model (cystometry); design: species or system Female Sprague-Dawley rats; conditions: 10 mg/kg p.o., cystometry one hour after dosing
Description: In addition, we tested the ability of compounds to inhibit the hyperactivity of hypertrophied bladder (detrusor) smooth muscle in conscious female rats with hypertrophied bladders and thereby alleviate urinary incontinence in rats according to the following protocol described by Malmgren et al. (J. Urol. 1989, 142, 1134.):
Female Sprague-Dawley rats, ranging in weight from 190-210 g are used. Up to 25 animals are prepared each time. After development of bladder hypertrophy 4-8 animals are used per test.
Compounds are dissolved in PEG-200 and administered by gastric gavage or intravenously in a volume of 5 mL/kg. For primary screening all drugs are administered at the arbitrary dose of 10 mg/kg p.o. to groups of 4 rats.
The animals are anesthetized with halothane. Through a midline incision the bladder and urethra are exposed and a ligature of 4-0 silk is tied around the proximal urethra in the presence of a stainless steel rod (1 mm diameter) to produce a partial occlusion. […] The following urodynamic variables are recorded: […]
The mean value of each variable is calculated before and after compound administration. For each compound the changes in the variables measured are compared to the values obtained before treatment and expressed as percent inhibition. The data are also subjected to 2-way analysis of variance to determine significant (p<0.05) changes in the variable measured. […]

For Cc1nn(C)c(NCC(C)(C)C)c1Nc1ccc(Cl)cc1 [Example 14, N(4)-(4-Chloro-phenyl)-N(3)-(2,2-dimethyl-propyl)-2,5-dimethyl-2H-pyrazole-3,4-diamine], which IC50 [1] is on record?
Its IC50 is 22.9 µM.

What does the source list for Cc1nn(C)c(NCC(C)(C)C)c1Nc1ccc(C#N)cc1 [Example 13, 4-[5-(2,2-Dimethyl-propylamino)-1,3-dimethyl-1H-pyrazol-4-ylamino]-benzonitrile]?
IC50 [1]: 17.9 µM; melting point: 131 to 134 °C

Which IC50 [1] does the source give for Cc1nn(C)c(NCC(C)(C)C)c1Nc1ccccc1 [Example 11, N(3)-(2,2-Dimethyl-propyl)-2,5-dimethyl-N(4)-phenyl-2H-pyrazole-3,4-diamine] here?
The IC50 was 4.3 µM.

Which IC50 [1] does the source give for Cc1nn(C)c(NCC(C)(C)C)c1NCc1cccnc1 [Example 7, N(3)-(2,2-Dimethyl-propyl)-2,5-dimethyl-N(4)-pyridin-3-ylmethyl-2H-pyrazole-3,4-diamine] here?
The IC50 was 15.4 µM.

Which IC50 [1] does the source give for CCC(C)(C)CNc1c(NCc2ccc(C#N)cc2)c(C)nn1C [Example 5, 4-{[5-(2,2-Dimethyl-butylamino)-1,3-dimethyl-1H-pyrazol-4-ylamino]-methyl}-benzonitrile] here?
Its IC50 is 12.6 µM.

With Cc1nn(C)c(NCC(C)(C)C)c1NCc1ccc(F)cc1 [Example 3, N(3)-(2,2-Dimethyl-propyl)-N(4)-(4-fluoro-benzyl)-2,5-dimethyl-2H-pyrazole-3,4-diamine] as the compound, how does the IC50 [1] read?
The IC50 was 11.5 µM.

And the melting point?
The melting point was 32 to 39 °C.

Which IC50 [1] does the source give for Cc1cc(Cl)ccc1Nc1c(C)nn(C)c1NCC(C)(C)C [Example 12, N(4)-(4-Chloro-2-methyl-phenyl)-N(3)-(2,2-dimethyl-propyl)-2,5-dimethyl-2H-pyrazole-3,4-diamine] here?
Its IC50 is 12.5 µM.

For Cc1nn(C)c(NCC(C)(C)C)c1NCc1ccncc1 [Example 1, N(3)-(2,2-Dimethyl-propyl)-2,5-dimethyl-N(4)-pyridin-4-ylmethyl-2H-pyrazole-3,4-diamine], which IC50 [1] is on record?
The IC50 was 4.9 µM.

And the melting point?
Its melting point is 88 to 90 °C.

And the “% Red (F): percent reduction in the total number of spontaneous contractions” value [2]?
The value was −36 ± 7%.

For Cc1nn(C)c(NCC(C)(C)C)c1NCc1ccc(C#N)cc1 (as salt: tosylate) [Example 2, 4-{[5-(2,2-Dimethyl-propylamino)-1,3-dimethyl-1H-pyrazol-4-ylamino]-methyl}-benzonitrile], which melting point is on record?
The melting point was 102 to 104 °C.

With CCC(C)(C)CNc1c(NCc2ccncc2)c(C)nn1C [Example 9, N(3)-(2,2-Dimethyl-butyl)-2,5-dimethyl-N(4)-pyridin-4-ylmethyl-2H-pyrazole-3,4-diamine] as the compound, how does the IC50 [1] read?
The IC50 was 19.2 µM.

Which IC50 [1] does the source give for Cc1nn(C)c(NCC(C)(C)C)c1NCc1ccc(C#N)cc1 [Example 2, 4-{[5-(2,2-Dimethyl-propylamino)-1,3-dimethyl-1H-pyrazol-4-ylamino]-methyl}-benzonitrile] here?
The IC50 was 8.26 µM.

Which IC50 [1] does the source give for Cc1nn(C)c(NCC(C)(C)C)c1NCc1ccc(Cl)cc1Cl [Example 4, N(4)-(2,4-Dichloro-benzyl)-N(3)-(2,2-dimethyl-propyl)-2,5-dimethyl-2H-pyrazole-3,4-diamine] here?
The IC50 was 11.8 µM.

Which IC50 [1] does the source give for Cc1nn(C)c(NCC(C)(C)C)c1NCc1ccc(F)cc1F [Example 6, N(4)-(2,4-Difluoro-benzyl)-N(3)-(2,2-dimethyl-propyl)-2,5-dimethyl-2H-pyrazole-3,4-diamine] here?
Its IC50 is 13.5 µM.

Which IC50 [1] does the source give for Cc1cc(C)c(CNc2c(C)nn(C)c2NCC(C)(C)C)c(C)c1 [Example 8, N(3)-(2,2-Dimethyl-propyl)-2,5-dimethyl-N(4)-(2,4,6-trimethyl-benzyl)-2H-pyrazole-3,4-diamine] here?
The IC50 was 17.8 µM.

What about the melting point of the same compound?
Its melting point is 114 to 120 °C.

With CCC(C)(C)CNc1c(NCc2ccccc2)c(C)nn1C [Example 10, N(4)-Benzyl-N(3)-(2,2-dimethyl-butyl)-2,5-dimethyl-2H-pyrazole-3,4-diamine] as the compound, how does the IC50 [1] read?
The IC50 was 19.9 µM.

— US6458823B1, “Diaminopyrazoles” (Wyeth, priority 1998, dated 2002)
